Measurements from PubChem BioAssay (NCI).
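GI50 marks 50% less growth. TGI marks complete inhibition of growth.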

How the values were obtained:
Experiment in all cases: inhibition of tumour cell growth, NCI panel, 384-well format
SF-539 CNS = test system: SF-539 CNS
UACC-257 melanoma = test system: UACC-257 melanoma
CAKI-1 renal = test system: CAKI-1 renal
OVCAR-3 ovarian = test system: OVCAR-3 ovarian
IGROV1 ovarian = test system: IGROV1 ovarian
OVCAR-4 ovarian = test system: OVCAR-4 ovarian
HCT-15 colon = test system: HCT-15 colon
MOLT-4 leukemia = test system: MOLT-4 leukemia
HT29 colon = test system: HT29 colon
SN12C renal = test system: SN12C renal
A549 NSCLC = test system: A549 NSCLC
SNB-19 CNS = test system: SNB-19 CNS
HCT-116 colon = test system: HCT-116 colon
K-562 leukemia = test system: K-562 leukemia
NCI-H460 NSCLC = test system: NCI-H460 NSCLC
SF-295 CNS = test system: SF-295 CNS
HCC-2998 colon = test system: HCC-2998 colon
CCRF-CEM leukemia = test system: CCRF-CEM leukemia
RPMI-8226 leukemia = test system: RPMI-8226 leukemia
DU-145 prostate = test system: DU-145 prostate
SK-OV-3 ovarian = test system: SK-OV-3 ovarian
LOX IMVI melanoma = test system: LOX IMVI melanoma
786-0 renal = test system: 786-0 renal
KM12 colon = test system: KM12 colon
M14 melanoma = test system: M14 melanoma
HOP-62 NSCLC = test system: HOP-62 NSCLC
MALME-3M melanoma = test system: MALME-3M melanoma
SK-MEL-5 melanoma = test system: SK-MEL-5 melanoma
OVCAR-8 ovarian = test system: OVCAR-8 ovarian
PC-3 prostate = test system: PC-3 prostate
NCI-H322M lung = test system: NCI-H322M lung
HL-60(TB) leukemia = test system: HL-60(TB) leukemia
SK-MEL-28 melanoma = test system: SK-MEL-28 melanoma
HOP-92 NSCLC = test system: HOP-92 NSCLC
U251 glioblastoma = test system: U251 glioblastoma
T-47D breast = test system: T-47D breast
A498 renal = test system: A498 renal
COLO 205 colon = test system: COLO 205 colon
NCI-H522 lung = test system: NCI-H522 lung
BT-549 breast = test system: BT-549 breast
SW-620 colon = test system: SW-620 colon
TK-10 renal = test system: TK-10 renal
SF-268 CNS = test system: SF-268 CNS
MDA-MB-435 melanoma = test system: MDA-MB-435 melanoma
NCI-H226 lung = test system: NCI-H226 lung
OVCAR-5 ovarian = test system: OVCAR-5 ovarian
MCF7 breast = test system: MCF7 breast
ACHN renal = test system: ACHN renal
EKVX NSCLC = test system: EKVX NSCLC
MDA-MB-231 breast = test system: MDA-MB-231 breast
NCI/ADR-RES ovarian = test system: NCI/ADR-RES ovarian
SNB-75 CNS = test system: SNB-75 CNS
HS 578T breast = test system: HS 578T breast
UO-31 renal = test system: UO-31 renal
MDA-MB-468 breast = test system: MDA-MB-468 breast
UACC-62 melanoma = test system: UACC-62 melanoma
NCI-H23 lung = test system: NCI-H23 lung
RXF 393 renal = test system: RXF 393 renal
SR leukemia = test system: SR leukemia
SK-MEL-2 melanoma = test system: SK-MEL-2 melanoma

## COc1cc(C(=O)N[C@@H]2CCCN(C)C2)ccc1Nc1ncc2c(n1)N(C1CCCC1)CC(C)(C)C(=O)N2C
SF-539 CNS
  GI50: 0.036 µM
  TGI: 0.267 µM
UACC-257 melanoma
  GI50: 0.0408 µM
  TGI: 0.612 µM
CAKI-1 renal
  GI50: 0.395 µM
  TGI: 2.64 µM
OVCAR-3 ovarian
  GI50: 0.0181 µM
  TGI: 0.0479 µM
IGROV1 ovarian
  GI50: 0.0457 µM
  TGI: 1.67 µM
OVCAR-4 ovarian
  GI50: 1.11 µM
  TGI: 2.78 µM
HCT-15 colon
  GI50: 0.0696 µM
  TGI: 0.334 µM
MOLT-4 leukemia
  GI50: 0.0133 µM
  TGI: 0.0264 µM
HT29 colon
  GI50: 0.0212 µM
  TGI: 0.0681 µM
SN12C renal
  GI50: 0.0942 µM
  TGI: 2.21 µM
A549 NSCLC
  GI50: 0.0387 µM
  TGI: 1.09 µM
SNB-19 CNS
  GI50: 0.0501 µM
  TGI: 1.85 µM
HCT-116 colon
  GI50: 0.0394 µM
  TGI: 0.705 µM
K-562 leukemia
  GI50: 0.0191 µM
  TGI: 0.0554 µM
NCI-H460 NSCLC
  GI50: 0.0217 µM
  TGI: 0.0479 µM
SF-295 CNS
  GI50: 0.0386 µM
  TGI: 0.196 µM
HCC-2998 colon
  GI50: 0.0218 µM
  TGI: 0.0942 µM
CCRF-CEM leukemia
  TGI: 0.0213 µM
RPMI-8226 leukemia
  GI50: 0.0316 µM
  TGI: 0.101 µM
DU-145 prostate
  GI50: 0.0351 µM
  TGI: 0.206 µM
SK-OV-3 ovarian
  GI50: 0.0456 µM
  TGI: 1.2 µM
LOX IMVI melanoma
  GI50: 0.0341 µM
  TGI: 0.201 µM
786-0 renal
  GI50: 0.0638 µM
  TGI: 1.44 µM
KM12 colon
  GI50: 0.017 µM
  TGI: 1.05 µM
M14 melanoma
  GI50: 0.0273 µM
  TGI: 0.136 µM
HOP-62 NSCLC
  GI50: 0.0317 µM
  TGI: 0.598 µM
MALME-3M melanoma
  GI50: 0.0459 µM
  TGI: 0.251 µM
SK-MEL-5 melanoma
  GI50: 0.0253 µM
  TGI: 0.133 µM
OVCAR-8 ovarian
  GI50: 0.0223 µM
  TGI: 0.0539 µM
PC-3 prostate
  GI50: 0.0621 µM
  TGI: 2.62 µM
NCI-H322M lung
  GI50: 0.51 µM
  TGI: 3.73 µM
HL-60(TB) leukemia
  GI50: 0.0143 µM
  TGI: 0.0283 µM
SK-MEL-28 melanoma
  GI50: 0.128 µM
  TGI: 0.911 µM
HOP-92 NSCLC
  GI50: 0.0881 µM
  TGI: 0.989 µM
U251 glioblastoma
  GI50: 0.0467 µM
  TGI: 1.44 µM
T-47D breast
  GI50: 0.0815 µM
  TGI: 0.892 µM
A498 renal
  GI50: 0.206 µM
  TGI: 1.85 µM
COLO 205 colon
  GI50: 0.0195 µM
  TGI: 0.0714 µM
NCI-H522 lung
  GI50: 0.0171 µM
  TGI: 0.0375 µM
BT-549 breast
  GI50: 0.0432 µM
  TGI: 0.309 µM
SW-620 colon
  GI50: 0.0205 µM
  TGI: 0.114 µM
TK-10 renal
  GI50: 1.17 µM
  TGI: 4.97 µM
SF-268 CNS
  GI50: 0.0105 µM
  TGI: 0.047 µM
MDA-MB-435 melanoma
  GI50: 0.019 µM
  TGI: 0.0406 µM
NCI-H226 lung
  GI50: 1.62 µM
  TGI: 12 µM
OVCAR-5 ovarian
  GI50: 0.0359 µM
  TGI: 1.22 µM
MCF7 breast
  GI50: 0.0289 µM
  TGI: 1.3 µM
ACHN renal
  GI50: 0.541 µM
  TGI: 2.23 µM
EKVX NSCLC
  GI50: 0.119 µM
  TGI: 1.88 µM
MDA-MB-231 breast
  GI50: 0.0418 µM
  TGI: 2.22 µM
NCI/ADR-RES ovarian
  GI50: 0.695 µM
  TGI: 2.34 µM
SNB-75 CNS
  GI50: 0.285 µM
  TGI: 2.61 µM
HS 578T breast
  GI50: 0.0169 µM
  TGI: 0.089 µM
UO-31 renal
  GI50: 0.345 µM
  TGI: 1.39 µM
MDA-MB-468 breast
  TGI: 0.0163 µM
UACC-62 melanoma
  GI50: 0.0337 µM
  TGI: 0.252 µM
NCI-H23 lung
  GI50: 0.0176 µM
  TGI: 0.0526 µM
RXF 393 renal
  GI50: 0.02 µM
  TGI: 0.0614 µM

## Cc1cc(C)c(CNC(=O)c2cc(Cl)c3c(c2C)O[C@@](C)(C2CCC(N(C)C)CC2)O3)c(=O)[nH]1 (some centres undefined)
SF-539 CNS
  GI50: 35 µM
  TGI: > 100 µM
UACC-257 melanoma
  GI50: 22.7 µM
  TGI: 51.8 µM
CAKI-1 renal
  GI50: 19.1 µM
  TGI: 39.2 µM
OVCAR-3 ovarian
  GI50: 72 µM
  TGI: > 100 µM
IGROV1 ovarian
  GI50: 51 µM
  TGI: > 100 µM
OVCAR-4 ovarian
  GI50: > 100 µM
  TGI: > 100 µM
HCT-15 colon
  GI50: 71.1 µM
  TGI: > 100 µM
MOLT-4 leukemia
  GI50: 29.2 µM
  TGI: 77.5 µM
HT29 colon
  GI50: 21.3 µM
  TGI: 48.7 µM
SN12C renal
  GI50: 76.6 µM
  TGI: > 100 µM
A549 NSCLC
  GI50: 76.2 µM
  TGI: > 100 µM
SNB-19 CNS
  GI50: > 100 µM
  TGI: > 100 µM
HCT-116 colon
  GI50: 38.6 µM
  TGI: > 100 µM
K-562 leukemia
  GI50: 14.9 µM
  TGI: 30.5 µM
NCI-H460 NSCLC
  GI50: 37.2 µM
  TGI: > 100 µM
SF-295 CNS
  GI50: 35.1 µM
  TGI: > 100 µM
DU-145 prostate
  GI50: 81.1 µM
  TGI: > 100 µM
SK-OV-3 ovarian
  GI50: > 100 µM
  TGI: > 100 µM
SR leukemia
  GI50: 19.8 µM
  TGI: 34.1 µM
786-0 renal
  GI50: 16.1 µM
  TGI: 32 µM
KM12 colon
  GI50: 59.4 µM
  TGI: > 100 µM
M14 melanoma
  GI50: 38.2 µM
  TGI: > 100 µM
HOP-62 NSCLC
  GI50: > 100 µM
  TGI: > 100 µM
MALME-3M melanoma
  GI50: 25.1 µM
  TGI: 56.9 µM
SK-MEL-5 melanoma
  GI50: 17.6 µM
  TGI: 37.2 µM
OVCAR-8 ovarian
  GI50: > 100 µM
  TGI: > 100 µM
PC-3 prostate
  GI50: 56.3 µM
  TGI: > 100 µM
NCI-H322M lung
  GI50: > 100 µM
  TGI: > 100 µM
HL-60(TB) leukemia
  GI50: 15.4 µM
  TGI: 37.6 µM
SK-MEL-28 melanoma
  GI50: 83 µM
  TGI: > 100 µM
HOP-92 NSCLC
  GI50: 40 µM
  TGI: > 100 µM
U251 glioblastoma
  GI50: 72.9 µM
  TGI: > 100 µM
T-47D breast
  GI50: > 100 µM
  TGI: > 100 µM
A498 renal
  GI50: 20.4 µM
  TGI: 37.1 µM
SK-MEL-2 melanoma
  GI50: 17.4 µM
  TGI: 45.6 µM
COLO 205 colon
  GI50: > 100 µM
  TGI: > 100 µM
NCI-H522 lung
  GI50: > 100 µM
  TGI: > 100 µM
BT-549 breast
  GI50: 19 µM
  TGI: 45 µM
SW-620 colon
  GI50: > 100 µM
  TGI: > 100 µM
TK-10 renal
  GI50: 33.4 µM
  TGI: > 100 µM
SF-268 CNS
  GI50: 45.4 µM
  TGI: > 100 µM
MDA-MB-435 melanoma
  GI50: 73.4 µM
  TGI: > 100 µM
NCI-H226 lung
  GI50: 44.3 µM
  TGI: > 100 µM
OVCAR-5 ovarian
  GI50: > 100 µM
  TGI: > 100 µM
MCF7 breast
  GI50: 44.9 µM
  TGI: > 100 µM
ACHN renal
  GI50: > 100 µM
  TGI: > 100 µM
EKVX NSCLC
  GI50: 48.9 µM
  TGI: > 100 µM
MDA-MB-231 breast
  GI50: > 100 µM
  TGI: > 100 µM
SNB-75 CNS
  GI50: 18.6 µM
  TGI: 60.3 µM
HS 578T breast
  GI50: 13.8 µM
  TGI: 32.7 µM
UO-31 renal
  GI50: 63.1 µM
  TGI: > 100 µM
MDA-MB-468 breast
  GI50: 24.9 µM
  TGI: 73.2 µM
UACC-62 melanoma
  GI50: 32.6 µM
  TGI: > 100 µM
NCI-H23 lung
  GI50: 46.8 µM
  TGI: > 100 µM
RXF 393 renal
  GI50: 7.55 µM
  TGI: 21.2 µM
